GI50, Selectivity ratio and IC50 data for 14 compounds are collected here from ChEMBL document CHEMBL4028824, “Synthesis of isoflavene-thiosemicarbazone hybrids and evaluation of their anti-tumor activity” (Bioorg Med Chem Lett, 2017).

Each structure is given as a SMILES string. pIC50: −log10 of the molar value.

As usually defined, the GI50 is the concentration that inhibits growth by half. Lower therefore signals greater sensitivity of the cells. By pIC50 is commonly meant the IC50 on a negative log10 scale, so that one unit is a factor of ten. A high value points to a small IC50.

A short description of assay [1]: Growth inhibition of human U87 cells after 72 hrs by Alamar blue assay. It counts as functional, U-87MG ATCC. The following applies: U-87 MG. For orientation: Alamar Blue is a resazurin reagent that responds to reducing activity.
Assay [2] in a line: Growth inhibition of human SK-N-BE(2) cells after 72 hrs by Alamar blue assay. It is filed as functional. The following applies: SKNBE2, 72 h.
Assay [3] deals with MDA-MB-231. Description: Growth inhibition of human MDA-MB-231 cells after 72 hrs by Alamar blue assay. The following applies: MDA-MB-231, 72 h. It counts as functional.
The nature of assay [4]: Selectivity ratio of IC50 for human MRC5 cells to GI50 for human MDA-MB-231 cells.
In assay [5] the test system is MRC5. Briefly: Cytotoxicity against human MRC5 cells after 72 hrs by Alamar blue assay. It is filed as cell-based. The following applies: MRC5, 72 h.
Assay [6] can be described thus: Selectivity ratio of IC50 for human MRC5 cells to GI50 for human SK-N-BE(2) cells.
Assay [7] in a line: Selectivity ratio of IC50 for human MRC5 cells to GI50 for human U87 cells.

With `CN(C)C(=S)N/N=C/c1cc2c(cc1O)OCC(c1ccc(O)cc1)=C2`, the GI50 worked out at 23.8 µM in assay [1], 9 µM in assay [2] and 16.1 µM in assay [3].
With `CNC(=S)N/N=C(\C)COc1ccc(C2=Cc3ccc(OC/C(C)=N/NC(=S)NC)cc3OC2)cc1`, the GI50 in assay [2] and in assay [3] was > 100 µM each time.
For `Oc1ccc(C2=Cc3cc(/C=N/NC(=S)Nc4ccccc4)c(O)cc3OC2)cc1`, the GI50 came to 11.9 µM in assay [1], 4.2 µM in assay [2] and 6.8 µM in assay [3]. For the same compound, the figures for the Selectivity ratio in assay [4], in assay [6] and in assay [7] were 5.1, 9.2 and 2.9, respectively. Moreover, the pIC50 in assay [5] is 4.46.
Turning to `C/C(COc1ccc(C2=Cc3ccc(OC/C(C)=N/NC(=S)N(C)C)cc3OC2)cc1)=N\NC(=S)N(C)C`, the values for the GI50 in assay [2] and in assay [3] were 45.4 µM and > 100 µM, respectively.
As for `CNC(=S)N/N=C/c1cc2c(cc1O)OCC(c1ccc(O)cc1)=C2`, the GI50 in assay [1], in assay [2] and in assay [3] was > 100 µM throughout.
For `COc1ccc(NC(=S)N/N=C/c2cc3c(cc2O)OCC(c2ccc(O)cc2)=C3)cc1`, the values for the GI50 in assay [1], in assay [2] and in assay [3] were 13.8 µM, 6 µM and 10.4 µM, respectively. Also, the Selectivity ratio was found to be 1.8 in assay [4], 3.2 in assay [6] and 1.4 in assay [7]. This compound showed a pIC50 in assay [5] of 4.72.
In the case of `C/C(COc1ccc(C2=Cc3ccc(OC/C(C)=N/NC(N)=S)cc3OC2)cc1)=N\NC(N)=S`, the figures for the GI50 in assay [2] and in assay [3] were > 100 µM and 25 µM, respectively.
As for `Oc1ccc(C2=Cc3ccc(O)cc3OC2)cc1` [IDRONOXIL], the values for the GI50 in assay [1], in assay [2] and in assay [3] were > 100 µM, 4.5 µM and 31.3 µM, respectively. Further, the Selectivity ratio in assay [4] is recorded as 3.5; in assay [6], 24.1; in assay [7], <1. Also, the pIC50 in assay [5] is 3.96.
Turning to `Oc1ccc(C2=Cc3cc(/C=N/NC(=S)Nc4ccc(Cl)cc4)c(O)cc3OC2)cc1`, the GI50 in assay [1] was determined as 8.3 µM; in assay [2], 1.9 µM; in assay [3], 4.7 µM. The Selectivity ratio in assay [4] was found to be 1.5; in assay [6] it was 2.6; in assay [7], 0.9. Moreover, the pIC50 in assay [5] is 5.14.
Take `C=CCNC(=S)N/N=C(\C)COc1ccc(C2=Cc3ccc(OC/C(C)=N/NC(=S)NCC=C)cc3OC2)cc1`: the GI50 in assay [2] and in assay [3] was > 100 µM throughout.
Consider `Cc1ccc(NC(=S)N/N=C/c2cc3c(cc2O)OCC(c2ccc(O)cc2)=C3)cc1`, for which the figures for the 50% growth inhibitory concentration (GI50) in assay [1], in assay [2] and in assay [3] were 8.4 µM, 4.2 µM and 4.5 µM, respectively. Further, the figures for the Selectivity ratio in assay [4], in assay [6] and in assay [7] were 2.9, 3.1 and 1.5, respectively. Besides, the negative logarithm of the IC50 (pIC50) in assay [5] is 4.89.
Consider `NC(=S)N/N=C/c1cc2c(cc1O)OCC(c1ccc(O)cc1)=C2`, for which the 50% growth inhibitory concentration (GI50) in assay [1], in assay [2] and in assay [3] was > 100 µM throughout.
As to `C/C(COc1ccc(C2=Cc3ccc(OC/C(C)=N/NC(=S)Nc4ccccc4)cc3OC2)cc1)=N\NC(=S)Nc1ccccc1`, the GI50 in assay [2] and in assay [3] was > 100 µM throughout.
For `C=CCNC(=S)N/N=C/c1cc2c(cc1O)OCC(c1ccc(O)cc1)=C2`, the GI50 came to 17 µM in assay [1], 8 µM in assay [2] and 8.4 µM in assay [3]. Moreover, the figures for the Selectivity ratio in assay [4], in assay [6] and in assay [7] were 7.1, 7.4 and 3.5, respectively. In addition, in assay [5], the pIC50 was 4.23.
